This is an account of results in the NIST ThermoML archive (doi:10.1021/je5009729).

Each structure is given as a SMILES string. ± gives the expanded uncertainty stated by the source.

For series [1] the following is noted: for vapor or sublimation pressure: Gas chromatography; for Normal melting temperature / Triple point temperature: DTA.
Series [2] in a line: Molar enthalpy of transition or fusion. The note with it: DSC.

Take `CCCCCC=CCC=CCC=CCC=CCCCC(=O)O` [5,8,11,14-eicosatetraenoic acid]: the “vapor or sublimation pressure” value in series [1] (298.15 K, Liquid) is 6.5e-10 kPa.
As to `CCCCCCCC/C=C\CCCCCCCCCC(=O)O` [(11Z)-eicosenoic acid], in series [1] (298.15 K, Liquid), the “vapor or sublimation pressure” value came to 1.18e-09 kPa.
The same measure, in the same setting: in the case of `CCCCCCCCCCC/C=C\CCCCC(=O)O` [(Z)-6-octadecenoic acid] it was 1.13e-08 kPa.
Same read-out and setting: the same measure for `CCCCCCCC/C=C\CCCCCCCC(=O)O` [(Z)-9-octadecenoic acid]: 1.01e-08 kPa.
With `CCCCCCCC/C=C\CCCCCCCCCCCCCC(=O)O` [(Z)-tetracos-15-enoic acid], the “Molar enthalpy of transition or fusion” value in series [2] (Crystal) was 14.4 ± 0.359 kcal/mol. The “vapor or sublimation pressure” value in series [1] (298 K, Crystal) turned out to be 2.7e-12 kPa; in series [1] (298.15 K, Liquid), 1e-11 kPa. Further, the Normal melting temperature in series [1] (Crystal) stood at 42 ± 1 °C.
As for `CC/C=C\C/C=C\C/C=C\C/C=C\C/C=C\C/C=C\CCC(=O)O` [cis-4,7,10,13,16,19-docosahexaenoic acid], the “vapor or sublimation pressure” value in series [1] (298.15 K, Liquid) amounted to 2.2e-11 kPa.
Turning to `CCCCCC/C=C\CCCCCCCC(=O)O` [cis-9-hexadecenoic acid], the “vapor or sublimation pressure” value in series [1] (298.15 K, Liquid) was 6.9e-08 kPa.
`CCCCCCCCCCCCCCCCCCCCCCCCCC(=O)O` [hexacosanoic acid]: in series [2] (Crystal 2), the “Molar enthalpy of transition or fusion” value amounted to 21.2 ± 0.621 kcal/mol. Besides, the “vapor or sublimation pressure” value in series [1] (298.15 K, Crystal) was found to be 8e-15 kPa; in series [1] (298.15 K, Liquid), 2.5e-12 kPa. In addition, the Normal melting temperature in series [1] (Crystal 1) worked out at 85.7 ± 0.7 °C. The Triple point temperature in series [1] (Crystal 2) amounted to 354.3 ± 0.5 K.
On to `CCCCCCCCCCCCCCCCCCCCCCCC(=O)O` [lignoceric acid], for which the figures for the “Molar enthalpy of transition or fusion” value in series [2] (Crystal 1) and in series [2] (Crystal 3) were 20.2 ± 0.454 kcal/mol and 1.18 ± 0.0621 kcal/mol, respectively. Besides, the “vapor or sublimation pressure” value in series [1] (298 K, Crystal) came out at 4e-14 kPa; in series [1] (298.15 K, Liquid), 1.1e-11 kPa. In series [1] (Crystal 1), the Normal melting temperature is 83.4 ± 0.5 °C. Besides, the Triple point temperature is reported as 351 ± 1 K in series [1] (Crystal 2) and 347 ± 1 K in series [1] (Crystal 3).
